From PubChem BioAssay (NCI)
Values joined by “and” are separate entries in the source; they are usually repeats but may differ in a detail not shown here. Equal entries are not always repeated.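 Method: 48-hour compound exposure of cells in 96-well plates, five concentrations, linear interpolation of endpoints. GI50: concentration for 50% inhibition of growth. The concentration for full growth arrest is given as TGI.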

What was measured:
Experiment in all cases: DTP human tumour cell line panel, 48 h
[1] = test system: SF-295 CNS
[2] = test system: SR leukemia
[3] = test system: EKVX NSCLC
[4] = test system: HCC-2998 colon
[5] = test system: NCI/ADR-RES ovarian
[6] = test system: NCI-H522 lung
[7] = test system: NCI-H460 lung
[8] = test system: SF-539 CNS
[9] = test system: SW-620 colon
[10] = test system: 786-0 renal

SMILES | GI50 [1] | TGI [1] | GI50 [2] | TGI [2] | GI50 [3] | TGI [3] | GI50 [4] | TGI [4] | GI50 [5] | TGI [5] | GI50 [6] | TGI [6] | GI50 [7] | TGI [7] | GI50 [8] | TGI [8] | GI50 [9] | TGI [9] | GI50 [10] | TGI [10]
CCCC(=O)Oc1ccc(/C(=C(\C)c2ccc(Cl)cc2)c2ccc(OCCN(CC)CC)cc2)cc1 | 1930 nM | 3.81 µM | 1980 nM | 6.92 µM | 7200 nM | 21 µM | 2670 nM | 7.06 µM | 4.25 µM | 16.5 µM | 12900 nM | 29.5 µM | 2120 nM | 4.4 µM | 1940 nM | 3.98 µM | 1990 nM | 4.35 µM | 1740 nM | 3.5 µM
O=C1c2ccccc2C(=O)c2c1ccc1conc21 | – | 4.97 µM | – | 18.3 µM | – | 3.87 µM | – | 29.8 µM | – | 8.45 µM | – | 3.44 µM | – | 12.2 µM | – | 3.87 µM | – | 4.36 µM | – | 5.79 µM
CN(C)Cc1ccc(NC(=O)c2cncc(C#Cc3cnc(N)c4ncccc34)c2)cc1C(F)(F)F | 1590 nM | 2.98 µM | 1430 nM | 3.44 µM | 1710 nM | 3.36 µM | 1620 nM | 3.16 µM | 1.8 µM | 3.67 µM | 1930 nM | 4.07 µM | 1670 nM | 3.12 µM | 1360 nM | 2.66 µM | 1500 nM | 2.98 µM | 1770 nM | 3.26 µM
COc1ccc(-n2nc(C)c3c(Nc4ccc(NC(=O)Nc5cccc(C(F)(F)F)c5)cc4)ncnc32)cc1 | 1670 nM | 3.3 µM | 2540 nM | 9.38 µM | 1930 nM | 4.34 µM | 2240 nM | 5.31 µM | 1.81 µM | 4.72 µM | 1600 nM | 3.8 µM | 1980 nM | 4.12 µM | 1280 nM | 2.66 µM | 2140 nM | 5.18 µM | 1560 nM | 3.03 µM
COc1ccc2[nH]c3c(C)c4c(c(C)c3c2c1)CN(C)C=C4 | – | 2.7 µM | – | 46.3 µM | – | 38.8 µM | – | 13.9 µM | – | > 100 µM | – | 6.34 µM | – | 11.2 µM | – | 2 µM | – | 18.3 µM | – | 4.05 µM
NC(CSC(c1ccccc1)(c1ccccc1)c1ccccc1)C(=O)O (stereo not drawn) | 485 nM and 522 nM and 2650 nM | – | – | 19.3 µM and 43.8 µM | 3240 nM | 16 µM | 2520 nM and 2640 nM | 7.4 µM and 10.8 µM and 23.9 µM | 10.9 µM | 48.2 µM and > 100 µM | 524 nM and 413 nM | 2.2 µM and 7.13 µM and 4.28 µM | 2070 nM | 21 µM and 15.8 µM | 874 nM and 459 nM | 10.6 µM and 3.01 µM and 3.26 µM | 1640 nM and 968 nM | 107 µM and > 100 µM | 1410 nM and 4240 nM | 70.3 µM and > 100 µM
CCN1C(=O)N(CC)C2C1NN=c1s/c(=C3\C(=O)Nc4ccccc43)c(=O)n12 (stereo not drawn) | 463 nM | 12.4 µM | 292 nM | > 62 µM | 2120 nM | > 100 µM | 1470 nM | 31.7 µM | 5.67 µM | > 100 µM | 373 nM | > 43.6 µM | 397 nM | > 100 µM | 309 nM | 1.7 µM | 409 nM | > 100 µM | 588 nM | 24.6 µM
